Experimental data from US5214204A, “Arylamidoalkyl-N-hydroxyurea compounds having lipoxygenase inhibitory activity” (Abbott Laboratories, priority 1991, dated 1993).

These molecules were tested against T1, 5-Lipoxygenase from HWBL-1 20,000 xg Supernatant (Rattus norvegicus, UniProt P12527) (assay: 5-lipoxygenase inhibition, 20,000 xg supernatant of homogenized HWBL-1 cells, radiolabeled arachidonic acid). Settings: read-out: IC50 (in vitro inhibitory potency against 5-lipoxygenase).
T1 construct: 20,000 xg supernatant from 1.5 million homogenized HWBL-1 cells; endogenous in cells
T1 sequence (P12527 1-673): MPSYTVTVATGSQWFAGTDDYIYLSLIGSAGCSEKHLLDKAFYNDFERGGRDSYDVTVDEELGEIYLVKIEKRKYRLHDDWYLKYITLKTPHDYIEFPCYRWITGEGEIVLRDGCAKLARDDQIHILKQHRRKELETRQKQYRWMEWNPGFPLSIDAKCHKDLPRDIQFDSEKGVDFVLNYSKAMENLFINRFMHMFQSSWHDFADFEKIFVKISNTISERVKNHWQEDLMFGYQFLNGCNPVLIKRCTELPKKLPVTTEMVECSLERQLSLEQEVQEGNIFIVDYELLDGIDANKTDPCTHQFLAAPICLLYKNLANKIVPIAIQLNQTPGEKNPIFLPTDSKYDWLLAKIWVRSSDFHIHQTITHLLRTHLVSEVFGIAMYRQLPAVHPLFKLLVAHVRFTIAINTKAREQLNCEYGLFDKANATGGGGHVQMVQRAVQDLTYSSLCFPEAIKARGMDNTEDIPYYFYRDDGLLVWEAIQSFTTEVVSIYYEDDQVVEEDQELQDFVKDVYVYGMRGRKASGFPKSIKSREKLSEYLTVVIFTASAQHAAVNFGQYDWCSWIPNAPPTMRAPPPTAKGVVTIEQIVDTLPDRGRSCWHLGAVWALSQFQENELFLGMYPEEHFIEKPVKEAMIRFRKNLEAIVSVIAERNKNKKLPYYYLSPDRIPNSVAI
Format: biochemical
Description: Assays to determine 5-lipoxygenase inhibitory activity of representative compounds of the present invention were performed in […] incubations containing the 20,000 xg supernatant from 1.5 million homogenized HWBL-1 cells and various concentrations of the test compound. Reactions were initiated by addition of radiolabeled arachidonic acid and terminated by acidification and ether extraction. Reaction products were separated from nonconverted substrate by thin layer chromatography and measured by liquid scintillation spectroscopy. All incubations are performed in triplicate. Inhibition of 5-lipoxygenase activity was calculated as the ratio of the amount of product formed in the presence and absence of inhibitor. IC50 values (concentration of compound producing 50% enzyme inhibition) were calculated by linear regression analysis of percentage inhibition versus log inhibitor concentration plots. (Dyer, R. D.; Haviv, F.; Hanel, A. M.; Bornemier, D. A.; Carter, G. W. Fed. Proc., Fed. Am. Soc. Exp. Biol. 1984, 43, 1462A).
In Vitro Inhibitory Potencies of Compounds of this Invention
Against 5-Lipoxygenase from HWBL-1 20,000 xg Supernatant

CN(C(=O)CN(O)C(N)=O)c1cccc(Oc2ccccc2)c1 [5, step 2] and CNC(=O)N(O)CC(=O)N(C)c1cccc(Oc2ccccc2)c1 [5, step 3] are within 1.5-fold of each other in IC50: 6300 nM for the first, 7300 nM for the second.

Going from NC(=O)N(O)CC(=O)Nc1cccc(Oc2ccccc2)c1 [Example 1, N-Hydroxy-N-[(((3-phenoxyphenyl)amino)carbonyl)methyl]urea] to NC(=O)N(O)CC(=O)Nc1ccc(Oc2ccccc2)cc1 [Example 10, N-Hydroxy-N-[(((4-phenoxyphenyl)amino)carbonyl)methyl]urea], the IC50 rises from 480 nM to 3500 nM (7.3-fold). The first is the more potent here.

Going from NC(=O)N(O)CC(=O)Nc1cccc(OCc2ccccc2)c1 [Example 3, N-Hydroxy-N-[(((3-phenylmethoxyphenyl)amino)carbonyl)methyl]urea] to CN(C(=O)CN(O)C(N)=O)c1cccc(OCc2ccccc2)c1 [Example 9, N-Hydroxy-N-[((N-methyl-(3-phenylmethoxyphenyl)amino)carbonyl)methyl]urea], the IC50 rises from 870 nM to 2800 nM (3.2-fold). The first is the more potent here.

Compared with CN(C(=O)CN(O)C(N)=O)c1ccc(Oc2ccccc2)cc1 [Example 4], CN(CCN(O)C(N)=O)C(=O)c1cccc(Oc2ccccc2)c1 [Example 15] is 9.1-fold lower in IC50: 5800 nM for the first, 640 nM for the second.

Compared with CC(/C=C/c1ccc(Br)cc1)NC(=O)CN(O)C(N)=O (stereo not drawn) [Example 11, N-Hydroxy-N-[(((trans-4-(4-bromophenyl)but-3-en-2-yl)amino)carbonyl)methyl]urea], CC(/C=C/c1cccc(Oc2ccccc2)c1)NC(=O)CN(O)C(N)=O (stereo not drawn) [Example 12, N-Hydroxy-N-[(((trans-4-(3-phenoxyphenyl)but-3-en-2-yl)amino)carbonyl)methyl]urea] is 9-fold lower in IC50: 6600 nM for the first, 730 nM for the second.

CC(/C=C\c1cccc(Oc2ccccc2)c1)NC(=O)CN(O)C(N)=O (stereo not shown) [Example 13] and CC(CNC(=O)c1cccc(Oc2ccccc2)c1)N(O)C(N)=O (stereo not shown) [Example 33, N-Hydroxy-N-[3-((3-phenoxybenzoyl)amino)prop-2-yl]urea] are within 1.5-fold of each other in IC50: 830 nM for the first, 610 nM for the second.

Compared with CN(CCN(O)C(N)=O)C(=O)Cc1ccc(Br)cc1 [Example 14, N-Hydroxy-N-[2-(((4-bromophenylacetyl)-N-methyl)amino)ethyl]urea], CC(C)Cc1ccc(C(C)C(=O)NCCN(O)C(N)=O)cc1 (stereo not shown) [Example 82, N-Hydroxy-N-[2-((2-(4-(2-methylpropyl)phenyl)propionyl)amino)ethyl]urea] is 2.8-fold higher in IC50: 1800 nM for the first, 5000 nM for the second. The first is the more potent here.

Going from COc1cccc(C(=O)NCCN(O)C(N)=O)c1 [Example 16] to CC(C)Oc1cccc(C(=O)NCCN(O)C(N)=O)c1 [Example 46, N-Hydroxy-N-[2-((3-(1-methylethoxy)benzoyl)amino)ethyl]urea], the IC50 falls from 1900 nM to 290 nM (6.6-fold). The second is the more potent here.

COc1ccc(C(=O)NCCN(O)C(N)=O)cc1 [Example 17] and NC(=O)N(O)CCNC(=O)c1ccc(Cl)cc1 [Example 20, N-Hydroxy-N-[2-((4-chlorobenzoyl)amino)ethyl]urea] are within 1.5-fold of each other in IC50: 5000 nM for the first, 4500 nM for the second.

CCCCOc1ccc(C(=O)NCCN(O)C(N)=O)cc1 [Example 18] and CCCCCCOc1ccc(C(=O)NCCN(O)C(N)=O)cc1 [Example 57, N-Hydroxy-N-[2-((4-n-hexyloxybenzoyl)amino)ethyl]urea] are within 1.5-fold of each other in IC50: 250 nM for the first, 290 nM for the second.

NC(=O)N(O)CCCCNC(=O)c1cccc(Oc2ccccc2)c1 [Example 22, N-Hydroxy-N-[4-((3-phenoxybenzoyl)amino)butyl]urea] and CNC(=O)N(O)CCNC(=O)c1cccc(Oc2ccccc2)c1 [Example 24, N-Hydroxy-N'-methyl-N-[2-((3-phenoxybenzoyl)amino)ethyl]urea] are within 1.5-fold of each other in IC50: 330 nM for the first, 290 nM for the second.

NC(=O)N(O)CCNC(=O)c1cccc(Oc2cccc(C(F)(F)F)c2)c1 [Example 25, N-Hydroxy-N-[2-((3-(3-trifluoromethylphenoxy)benzoyl)amino)ethyl]urea] and NC(=O)N(O)CCNC(=O)c1cccc(Oc2ccc(Cl)c(Cl)c2)c1 [Example 29, N-Hydroxy-N-[2-((3-(3,4-dichlorophenoxy)benzoyl)amino)ethyl]urea] are within 1.5-fold of each other in IC50: 430 nM for the first, 300 nM for the second.

Compared with CNC(=O)N(O)CCNC(=O)c1cccc(Oc2ccc(Cl)cc2)c1 [Example 27, N-Hydroxy-N'-methyl-N-[2-((3-(4-chlorophenoxy)benzoyl)amino)ethyl]urea], COc1ccc(Oc2cccc(C(=O)NCCN(O)C(N)=O)c2)cc1 [Example 28, N-Hydroxy-N-[2-((3-(4-methoxyphenoxy)benzoyl)amino)ethyl]urea] is 3.3-fold lower in IC50: 760 nM for the first, 230 nM for the second. The second is the more potent here.

NC(=O)N(O)CCNC(=O)c1cccc(Oc2cc(Cl)cc(Cl)c2)c1 [Example 30, N-Hydroxy-N-[2-((3-(3.5-dichlorophenoxy)benzoyl)amino)ethyl]urea] and CC(C)(C)c1ccc(Oc2cccc(C(=O)NCCN(O)C(N)=O)c2)cc1 [Example 31, N-Hydroxy-N-[2-((3-(4-tert-butylphenoxy)benzoyl)amino)ethyl]urea] are within 1.5-fold of each other in IC50: 340 nM for the first, 470 nM for the second.

Going from NC(=O)N(O)CCNC(=O)c1ccc(-c2ccccc2)cc1 [Example 34, N-Hydroxy-N-[2-((4-phenylbenzoyl)amino)ethyl]urea] to CC(Oc1ccc(C(=O)NCCN(O)C(N)=O)cc1)c1ccccc1 (stereo not shown) [Example 66, N-Hydroxy-N-[2-((4-(1-phenylethyloxy)benzoyl)amino)ethyl]urea], the IC50 falls from 380 nM to 250 nM (1.5-fold).

Compared with CN(CCN(O)C(N)=O)Cc1cccc(Oc2ccc(Cl)c(Cl)c2)c1 [Example 39, N-Hydroxy-N-[2-(N-methyl((3-(3,4-dichlorophenoxy)phenyl)methyl)amino)ethyl]urea], COc1ccc(CN(C)CCN(O)C(N)=O)cc1OCc1ccccc1 [Example 41, N-Hydroxy-N-[2-(((((4-methoxy-3-phenylmethoxy)phenyl)methyl)-N-methyl)amino)ethyl]urea] is 5.2-fold higher in IC50: 310 nM for the first, 1600 nM for the second.

Compared with C=C(C)COc1cccc(C(=O)NCCN(O)C(N)=O)c1 [Example 47, N-Hydroxy-N-[2-((3-(2-methyl-prop-2-enyloxy)benzoyl)amino)ethyl]urea], CC(Oc1cccc(C(=O)NCCN(O)C(N)=O)c1)c1ccccc1 (stereo not shown) [Example 67, N-Hydroxy-N-[2-((3-(1-phenylethyloxy)benzoyl)amino)ethyl]urea] is 1.5-fold higher in IC50: 230 nM for the first, 350 nM for the second.

First: NC(=O)N(O)CCNS(=O)(=O)c1ccc2ccccc2c1 [Example 48, N-Hydroxy-N-[2-((naphth-2-ylsulfonyl)amino)ethyl]urea]
Second: NC(=O)N(O)CCNC(=O)c1ccc2ccccc2n1 [Example 75, N-Hydroxy-N-[2-((quinolin-2-oyl)amino)ethyl]urea]
The IC50 of the first is 11-fold higher: 1100 nM for the first, 100 nM for the second. The second is the more potent here.

Going from NC(=O)N(O)CCNC(=O)c1cccn1Cc1ccc(Cl)cc1 [Example 49, N-Hydroxy-N-[2-(((1-(4-chlorophenylmethyl)pyrrol-2-yl)carbonyl)amino)ethyl]urea] to NC(=O)N(O)CCNC(=O)c1cscc1Sc1ccc(Cl)cc1 [Example 59, N-Hydroxy-N-[2-((4-(4-chlorothiophenoxy)thien-3-oyl)amino)ethyl]urea], the IC50 falls from 290 nM to 100 nM (2.9-fold). The second is the more potent here.

Going from CC(CN(O)C(N)=O)N(C)C(=O)c1cccc(Oc2ccc(Cl)cc2)c1 (stereo not shown) [Example 50, N-Hydroxy-N-[2-(((3-(4-chlorophenoxy)benzoyl)-N-methyl)amino)propyl]urea] to NC(=O)N(O)CCNC(=O)COc1ccc(Oc2ccccc2)cc1 [Example 72, N-Hydroxy-N-[2-((4-phenoxyphenoxyacetyl)amino)ethyl] urea], the IC50 falls from 5800 nM to 110 nM (53-fold).

Compared with NC(=O)N(O)CCNC(=O)c1cccc(C(=O)c2ccccc2)c1 [Example 65, N-Hydroxy-N-[2-((3-benzoylbenzoyl)amino)ethyl]urea], CC(C(=O)NCCN(O)C(N)=O)c1cccc(C(C)c2ccccc2)c1 (stereo not shown) [Example 69, N-Hydroxy-N-[2-(((3-(1-phenylethyl)phenyl)propion-2-yl)amino)ethyl]urea] is 1.8-fold higher in IC50: 220 nM for the first, 390 nM for the second.

COc1ccc2cc(/C=C(\C)C(=O)NCCN(O)C(N)=O)ccc2c1 [Example 76, N-Hydroxy-N-[2-(((3-(6-methoxynaphth-2-yl)prop-2-en-2-yl)carbonyl)amino)ethyl]urea] and NC(=O)N(O)CCNC(=O)c1csc(-c2ccccc2)n1 [Example 84, N-Hydroxy-N-[2-((2-phenylthiazol-4-oyl)amino)ethyl]urea] are within 1.5-fold of each other in IC50: 1000 nM for the first, 930 nM for the second.

NC(=O)N(O)CCNC(=O)CCc1ccccc1 [Example 77, N-Hydroxy-N-[2-((3-phenylpropionyl)amino)ethyl]urea] and NC(=O)N(O)CCNC(=O)Cc1ccccc1Nc1c(Cl)cccc1Cl [Example 83, N-Hydroxy-N-[2((2-(2.6-dichlorophenylamino)phenylacetyl)amino)ethyl]urea] are within 1.5-fold of each other in IC50: 390 nM for the first, 440 nM for the second.
